What was measured:
[1] = system: Cyr61 transcript levels in myometrial tissue; assay: Ex vivo treatment of myometrial explants with sex steroids and growth factors, Cyr61 mRNA by Northern blotting; format: cell-based, human
Description: (§1) Study subjects and tissue procurement Uterine leiomyomas and matched myometrial specimens were obtained according to protocols approved by the Institutional Review Boards following routine hysterectomy at the Department of Obstetrics and Gynecology, Pennsylvania Hospital. Tissue samples were provided from patients between the ages of 38 to 53 (median age=45) who were not on hormone replacement therapy nor prescribed gonadotropin releasing hormone agonists (n=38). All but one patient had experienced normal menstrual cycles prior to surgery. Tissue specimens were immediately frozen in liquid nitrogen following hysterectomies for total RNA isolation or fixed in 10% neutral-buffered formalin for in situ hybridization. Tissues for ex vivo culturing were placed in phenol-red free DMEM/Ham's F12 media (Gibco BRL, Rockville, Md.) containing 100 U/ml penicillin, […], and 250 ng/ml amphotericine B as a fungizone and transported on ice.
Northern blotting for Cyr61 and ER a Total cellular RNA was isolated from myometrial and leiomyoma tissue homogenates by guanidium isothiocynate lysis followed by phenol/chloroform extraction. Subsequently, total cellular RNA (20 μg) was subjected to electrophoresis in a 1% agarose gel containing 1 M formaldehyde. Separated RNA transcripts were transferred onto nylon membranes by […] and subsequently prehybridized at 60° C. in RapidHyb hybridization solution (Amersham, Arlington Heights, Ill.). A 0.41 kb human Cyr61 cDNA fragment was radiolabeled with [α-^32P]-dCTP (3,000 Ci/mmol) using the random-primer technique (Rediprime II, Amersham) and used as the hybridization probe. The radiolabeled probe (1×10^6 cpm/ml) was hybridized to membranes for 4 h at 60° C. Membranes were washed twice in 1×SSPE (0.15 M NaCl, […], and 0.01 M sodium phosphate, pH 7.4) and 0.1% SDS for 15 min at 25° C., followed by a final wash in 0.1×SSPE and 0.1% SDS for 5 min at 60° C. For estrogen receptor α (ERα) expression, membranes were reprobed with a 1.96 kb human ERα cDNA (1.96 kb full length coding region) that was radiolabeled with [α-^32P]-dCTP (3,000 Ci/mmol), hybridized and washed as described above. Relative levels of Cyr61 were normalized to glyceraldehyde-3-phosphate dehydrogenase (GAPDH) after reprobing membranes with a ^32P-radiolabeled oligonucleotide according to manufacturers protocol (endlabeling kit, GibcoBRL, Rockville, Md.).
Tissue treatment with sex steroids and growth factors Tissue specimens obtained as described above were immediately minced into 1-2 mm pieces using sterilized scalpels and forceps and placed in phenol-red free DMEM/Ham's F12 containing antifingal and antibiotic agents only. […]

[2] = system: Cyr61 in leiomyoma tissues; assay: Ex vivo treatment of leiomyoma explants with sex steroids and growth factors, Cyr61 mRNA by Northern blotting; format: cell-based, human; settings: leiomyoma explants ex vivo (n=8), 10 nM E2 or 10 ng/ml bFGF, 1 h
Description: as §1
Northern blotting for Cyr61 and ER a Total cellular RNA was isolated from myometrial and leiomyoma tissue homogenates by guanidium isothiocynate lysis followed by phenol/chloroform extraction. Subsequently, total cellular RNA (20 μg) was subjected to electrophoresis in a 1% agarose gel containing 1 M formaldehyde. […]

[3] = system: Cyr61 in murine and human fibroblasts; settings: Nathans et al. 1988; cited from earlier work

Compound: C[C@]12CC[C@@H]3c4ccc(O)cc4CC[C@H]3[C@@H]1CC[C@@H]2O [E2, 17β-estradiol]
- increase in Cyr61 transcript levels ([1]; myometrial explants ex vivo (n=8), 1 h, 10 nM E2, 10 ng/ml bFGF or serum, normalized to GAPDH): greater than 2 fold
- upregulation of Cyr61 in leiomyoma tissues [2]: neither E2 nor bFGF was able to upregulate Cyr61

Compound: C[C@]12CC[C@@H]3c4ccc(O)cc4C[C@@H](CCCCCCCCC[S+]([O-])CCCC(F)(F)C(F)(F)F)[C@H]3[C@@H]1CC[C@@H]2O (stereo partly shown) [ICI 182,780]
- inhibition of E2 mediated induction of Cyr61 ([1]; myometrial explants ex vivo, combination of 10 nM E2 and 1 μM ICI 182,780, 1 h): completely inhibited

Compound: CCC(=O)[C@@]1(C)CC[C@H]2[C@@H]3CCC4=CC(=O)CCC4=C3CC[C@@]21C [R5020]
- effect on Cyr61 expression ([1]; myometrial explants ex vivo, 10 nM R5020, 1 h): no effect on Cyr61 expression
- synergy with E2 on Cyr61 expression ([1]; myometrial explants ex vivo, combination of 10 nM E2 and 10 nM R5020, 1 h): nor did it synergize with E2

Compound: bFGF: basic fibroblast growth factor, purchased from R & D Systems, Inc.
- upregulation of Cyr61 in leiomyoma tissues [2]: neither E2 nor bFGF was able to upregulate Cyr61
- induction of Cyr61 [3]: induces Cyr61
